Experimental data from patent US7112680B2, “Heterocyclic hydrazones for use as anti-cancer agents” (Austria Wirtschaftsservice Gesellschaft MIT Beschrankter …, priority 2000, dated 2006).
Where two headings read alike, the source gives them in different places.

Assays:
[1] = system: Burkitt's lymphoma (CA 46, ATCC No. CRL 1648); experiment: Inhibition of tumor cell growth, MTT-assay, Burkitt's lymphoma; format: cell-based, human
Description: (§1) The KB cell lines were grown in Dulbecco's modified Eagle's medium (4,5 g glucose/l). To the cultures of KB-C1 cells 1 μg of colchicine/ml, and to the hydroxyurea-resistant KB-HU cells 1 mM hydroxyurea was added every other week. […] 3,000 - 10,000 cells in 200 μl medium were seeded per well into 96-well plates. […] Approximately 10,000 cells per 100 μl were seeded in 96-well plates. […] The substances were dissolved in dimethylsulfoxide (DMSO). […] Subsequently, the samples were fixed, washed, and the absorption was determined by a microplate reader.

MEXF 276L (melanoma) = experiment: Inhibition of tumor cell growth, SRB-assay, MEXF 276L; format: cell-based, human; details: Table 2, 72 hours
Description: as §1

[2] = system: CCRF-CEM (acute lymphoblastic leukemia); experiment: Inhibition of tumor cell growth, MTT-assay, CCRF-CEM; format: cell-based, human; details: Table 2, 72 hours
[3] = system: HeLa (epitheloid cervix carcinoma); experiment: Inhibition of tumor cell growth, SRB-assay, HeLa; format: cell-based, human
[4] = system: HT-29 (colon adenocarcinoma); experiment: Inhibition of tumor cell growth, SRB-assay, HT-29; format: cell-based, human
Description: as §1

[5] = system: multidrug-resistant KB-C1 cells; experiment: Inhibition of tumor cell growth, SRB-assay, KB-C1; format: cell-based, human; details: read-out: In vitro-activity against human tumor cell lines, KB-C1
Description: (§2) In order to obtain information about the growth-inhibiting action on tumor cells, the inhibition of the growth of the following human tumor cells was determined: Burkitt's lymphoma (CA 46, ATCC No. CRL 1648), CCRF-CEM (acute lymphoblastic leukemia, ATCC No. CCL 119), K562 (chronic myelogenous leukemia, ATTC No. CCL 243), HeLa (epitheloid cervix carcinoma, ATCC No. CCL 2), MEXF 276L (melanoma), HT-29 (colon adenocarcinoma, ATCC No. HTB 38), KB-3-1 (human oral epidermoid carcinoma, CTCC No. CCL 17), KB-HU hydroxyurea-resistant, multidrug-resistant KB-C1 cells (Akiyama et al, Cell. Mol Genet., 11:117–126, 1985). Burkitt's, CCRF-CEM, HeLa and MEXF 276L cells were grown in RPMI 1640, HT-29 cells in McCoy's 5A medium. The KB cell lines were grown in Dulbecco's modified Eagle's medium (4,5 g glucose/l). To the cultures of KB-C1 cells 1 μg of colchicine/ml, and to the hydroxyurea-resistant KB-HU cells 1 mM hydroxyurea was added every other week. The media were supplemented with 10% fetal calf serum (except Burkitt's lymphoma cells with 15%), 2 mM glutamine, 50 units/ml penicillin and 50 μg/ml streptomycin. Inhibition of growth of HeLa, HT-29, KB and MEXF 276L cells was detected by the SRB-assay (Skehan et al, J. Natl Cancer Inst., 82:1107–1112, 1990). 3,000 - 10,000 cells in 200 μl medium were seeded per well into 96-well plates. Dose-response curves for CCRF-CEM and Burkitt's lymphoma cells were effected by an MTT-assay (Mosman, J. Immunol Methods, 65:55–63, 1983) from Boehringer Mannheim, Mannheim, Germany. Approximately 10,000 cells per 100 μl were seeded in 96-well plates. After an initial incubation of four hours, various substance concentrations were added, and the cells were incubated at 37° C. in a water-saturated atmosphere of 95% air and 5% CO2 for 72 hours. The substances were dissolved in dimethylsulfoxide (DMSO). The concentration of DMSO was 0.5%, and this was not toxic to the cells. Subsequently, the samples were fixed, washed, and the absorption was determined by a microplate reader.

[6] = system: human tumor grafts (cell lines of FIG. 1); experiment: Colony forming assay (two-layer soft agar); format: cell-based; details: for IC50 / IC90 / Mean IC70: mean values of all cell lines tested in FIG. 1, continuous exposure 3 to 6 days
Description: An excellent correlation of drug response in patients and the colony forming assay has been found (Scholz et al, Eur. J. Cancer 25:901–905, 1990). Solid human tumors were grown as grafts in nude mice, removed from the latter, mechanically comminuted and subsequently incubated in an enzyme cocktail consisting of collagenase (1.2–1.8 U/ml), DNAse (375 U/ml) and hyaluronidase (29 U/ml) in RPMI 1640 medium at 37° C. for 30 minutes. The cell mixture was passed through sieves of 200 μm and 50 μm mesh size and washed thereafter twice with PBS (phosphate buffered saline). The percentage of live cells was determined using a Neubauer counting chamber and trypan blue staining.
The colony forming assay was performed according to a two-layer agar technique introduced and modified by Hamburger and Salmon (Hamburger and Salmon, Science, 197:461–463, 1977). The bottom layer consisted of 0.2 ml of Iscoves's Modified Dulbecco's medium with 20% fetal calf serum and 0.75% agar. 8×10^3 to 1.6×10^4 cells were added to the same medium and 0.4% agar and plated in 24-multiwell plates onto the base layer. One day after the plating (with continuous exposure), the substances were added in 0.2 ml medium. Each plate included six controls containing the solvent only, and the treated groups contained 6 concentrations of the substances, each in triplicate. Cultures were incubated at 37° C. and 7% CO2 in a water-saturated atmosphere for 3 to 6 days, depending on the doubling time of the tumor cells. At the time of maximum colony formation with a size of […], counts were performed with an automatic image analysis system. 24 h prior to counting, live colonies were stained with a sterile aqueous solution of 2-(4-iodophenyl)-3-(4-nitrophenyl)-5-phenyltetrazolium chloride (1 mg/ml, 100 μl/well). The results of the tests are given in FIG. 1, and in the following Table 5, respectively. […] Columns pointing towards the right show a slighter than average activity.

[7] = system: KB-HU hydroxyurea-resistant cells; experiment: Inhibition of tumor cell growth, SRB-assay, KB-HU; format: cell-based, human; details: Table 4, 72 hours, read-out: In vitro-activity against human tumor cell lines, KB-HU
Description: as §2

[8] = system: KB-3-1 (human oral epidermoid carcinoma); experiment: Inhibition of tumor cell growth, SRB-assay, KB-3-1; format: cell-based; details: read-out: In vitro-activity against human tumor cell lines, KB-3-1
Description: as §2

[9] = Table 2, 72 hours, read-out: IC50 Burkitts
[10] = Table 2, 72 hours, read-out: IC50 HeLa (converted)
[11] = Table 2, 72 hours, read-out: IC50 HT-29 (converted)
[12] = Table 4, 72 hours, read-out: In vitro-activity against human tumor cell lines, Burkitts
[13] = Table 4, 72 hours, read-out: In vitro-activity against human tumor cell lines, HeLa
[14] = Table 4, 72 hours, read-out: In vitro-activity against human tumor cell lines, HT-29

IC50 [1, 9] [nM]	IC50 (MEXF 276L (melanoma); read-out: IC50 MEXF276L) [nM]	IC50 [2] [nM]	IC50 [3, 10] [nM]	IC50 [4, 11] [nM]	Structure (SMILES)	further results
1220	2000	840	1490	880	CC(=NNc1nc2ccccc2[nH]1)c1cnc(C)cn1 [Ib-16]	–
1870	2360	1300	1990	1960	CC(=NNc1nc2ccccc2[nH]1)c1ccc(C)nn1 [Ib-4]	–
200	1560	350	340	1930	CC(=NNc1nc2ccccc2o1)c1nccc2ccccc12 [Ib-21]	–
5490	> 10000	7040	4530	7760	CC(=NNc1nc2ccccc2o1)c1ccc2ccccc2n1 [Ib-19]	–
840	2140	980	1230	2060	CC(=NNc1nc2ccccc2[nH]1)c1cccnn1 [Ib-1]	–
910	5380	1300	1870	2150	CC(=NNc1nc2ccccc2o1)c1nccnc1C [Ib-15]	–
–	–	–	–	–	CC(=NNc1nc2ccccc2n1C)c1cc(Cl)ccn1 [Id-4, 1-(4-Chloro-2-pyridyl)-1-ethanone-1-(1-methyl-1H-benzo[d]imidazol-2-yl)-hydrazone]	IC50 ([5]; Homo sapiens, KBC-1, Table 4, 72 hours): 90 nM; IC50 ([1]; Homo sapiens, CA46, Table 4, 72 hours, read-out: In vitro-activity against human tumor cell lines, Burkitts): 4 nM; IC50 ([3]; Homo sapiens, HeLa, Table 4, 72 hours, read-out: In vitro-activity against human tumor cell lines, HeLa): 170 nM; IC50 ([6]; Homo sapiens): 301 nM; IC90 ([6]; Homo sapiens): 4290 nM; tumor type selectivity ([6]; colony forming assay, IC70 pattern, FIG. 1): selectivity for colon, breast, ovarian, and uterus tumors; Mean IC70 [6]: 956 nM; IC50 ([7]; Homo sapiens): 270 nM; IC50 ([8]; Homo sapiens, KB 3-1, Table 4, 72 hours): 71 nM; IC50 ([4]; Homo sapiens, HT-29, Table 4, 72 hours, read-out: In vitro-activity against human tumor cell lines, HT-29): 520 nM
1340	1960	720	1250	1770	CC(=NNc1nc2ccccc2o1)c1cccnn1 [Ib-3]	–
–	–	–	–	–	CC(=NNc1nc2ccccc2n1C)c1cccc(Cl)n1 [Id-5]	IC50 ([5]; Table 4, 72 hours): 30 nM; IC50 [1, 12]: 12 nM; IC50 [3, 13]: 190 nM; IC50 [6]: 3300 nM; IC90 [6]: 9380 nM; Mean IC70 [6]: 5740 nM; IC50 [7]: 20 nM; IC50 ([8]; Table 4, 72 hours): 7 nM; IC50 [4, 14]: 320 nM
40	1220	220	210	120	CC(=NNc1nc2ccccc2o1)c1cc(C)ncn1 [Ib-10]	–
–	–	–	–	–	CC(=NNc1nc2ccccc2n1C)c1ncccc1N(C)C [Id-11]	IC50 ([5]; Table 4, 72 hours): 60 nM; IC50 [1, 12]: 2 nM; IC50 [3, 13]: 20 nM; IC50 [6]: 137 nM; IC90 [6]: 2900 nM; Mean IC70 [6]: 397 nM; IC50 [7]: 240 nM; IC50 ([8]; Table 4, 72 hours): 8 nM; IC50 [4, 14]: 160 nM
3370	4240	2170	3530	2230	CC(=NNc1nc2ccccc2[nH]1)c1nccnc1C [Ib-14]	–
390	1140	660	890	360	CC(=NNc1nc2ccccc2[nH]1)c1cc(C)ncn1 [Ib-9]	–
–	–	–	–	–	CC(=NNc1nc2ccccc2n1C)c1cc(-c2ccccc2)ccn1 [Id-15]	IC50 ([5]; Table 4, 72 hours): 230 nM; IC50 [1, 12]: 30 nM; IC50 [3, 13]: 40 nM; IC50 [6]: 429 nM; IC90 [6]: 5670 nM; Mean IC70 [6]: 1017 nM; IC50 [7]: 120 nM; IC50 ([8]; Table 4, 72 hours): 140 nM; IC50 [4, 14]: 50 nM
220	960	200	630	420	CC(=NNc1nc2ccccc2[nH]1)c1ncccn1 [Ib-25]	–
–	–	–	–	–	CC(=NNc1nc2ccccc2[nH]1)c1ccncn1 [Ib-6, 1-(4-Pyrimidinyl)-1-ethanone-1-(1H-benzo[d]imidazol-2-yl)-hydrazone]	IC50 ([1]; Homo sapiens, CA46, Table 2, 72 hours, read-out: IC50 Burkitts): 560 nM; IC50 (MEXF 276L (melanoma); Homo sapiens, MEXF276L): 910 nM; IC50 ([2]; Homo sapiens, CCRF-CEM): 410 nM; IC50 ([3]; Homo sapiens, HeLa, Table 2, 72 hours, read-out: IC50 HeLa (converted)): 880 nM; IC50 ([4]; Homo sapiens, HT-29, Table 2, 72 hours, read-out: IC50 HT-29 (converted)): 570 nM
840	2250	460	1610	1040	CC(=NNc1nc2ccccc2o1)c1ccc(C)nn1 [Ib-5]	–
30	700	130	180	270	CC(=NNc1nc2ccccc2o1)c1ncccn1 [Ib-27]	–
